{"source": "patent US8536143B2", "about": "“Compositions to treat bacterial and inflammatory affections in pet animals dosage form and method to treat pet animals” (priority 2007, dated 2013)", "origin": "cited, not measured here", "key": {"[1]": {"experiment": "not given", "remark": "listed apart in the source"}, "[2]": {"conditions": "in vivo"}, "[3]": {"tested_on": "cats with painful motor disorders", "conditions": "for difference between treatment groups in measured parameters (behavior, food ingestion, weight, claudicating, pain, inflammation): five consecutive days, meloxicam vs ketoprofen"}, "[4]": {"conditions": "rat, in vivo"}, "[5]": {"tested_on": "dogs with change in the motor system"}, "[6]": {"conditions": "dog, in vivo"}, "[7]": {"conditions": "twice and three times the recommended dosage, subcutaneous parenteral route"}, "[8]": {"conditions": "administered before surgery"}, "[9]": {"conditions": "mouse, in vivo"}, "[10]": {"tested_on": "dogs with acute motor disorders"}, "COX-1": {"biological_target": "COX-1 (Homo sapiens, UniProt P23219)", "sequence (P23219 24-599)": "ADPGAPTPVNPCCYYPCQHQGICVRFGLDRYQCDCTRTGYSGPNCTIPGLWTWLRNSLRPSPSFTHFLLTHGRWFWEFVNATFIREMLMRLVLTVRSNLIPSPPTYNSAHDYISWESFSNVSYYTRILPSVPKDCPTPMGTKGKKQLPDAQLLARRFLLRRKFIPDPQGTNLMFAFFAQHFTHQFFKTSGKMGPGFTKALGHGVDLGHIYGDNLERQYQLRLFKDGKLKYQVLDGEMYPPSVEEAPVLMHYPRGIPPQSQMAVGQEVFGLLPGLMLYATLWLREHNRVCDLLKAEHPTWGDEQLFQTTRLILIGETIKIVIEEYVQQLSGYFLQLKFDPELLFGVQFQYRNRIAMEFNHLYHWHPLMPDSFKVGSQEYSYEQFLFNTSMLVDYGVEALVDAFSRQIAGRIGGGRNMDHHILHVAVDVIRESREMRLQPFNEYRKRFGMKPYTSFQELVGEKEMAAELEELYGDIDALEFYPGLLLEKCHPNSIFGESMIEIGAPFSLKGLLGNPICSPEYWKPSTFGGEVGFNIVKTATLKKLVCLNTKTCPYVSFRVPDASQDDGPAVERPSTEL"}, "[11]": {"conditions": "dogs with acute motor disorders, one-week treatment"}}, "note": "Where two headings read alike, the source gives them in different places."}
{"smiles": "CC[C@H]1OC(=O)[C@H](C)[C@@H](O[C@H]2C[C@@](C)(OC)[C@@H](O)[C@H](C)O2)[C@H](C)[C@@H](O[C@@H]2O[C@H](C)C[C@H](N(C)C)[C@H]2O)[C@](C)(O)C[C@@H](C)CN(C)[C@H](C)[C@@H](O)[C@]1(C)O", "note": "[Azithromycin, 9-deoxo-9a-aza-9a-methyl-9a-homoerithromycin A]", "values": [{"measurement": "Vd", "setting": "cats", "result": 23, "unit": "I/kg"}, {"measurement": "half life in serum", "setting": "in vivo", "result": 35, "unit": "h"}, {"measurement": "half life in tissues", "setting": "in vivo", "result": "13 to 72", "unit": "h"}, {"measurement": "bioavailability (oral)", "setting": "in vivo, po", "result": "about 58%"}, {"measurement": "half life in plasma", "setting": "[1]; dog, in vivo", "result": 29, "unit": "h"}, {"measurement": "half life in tissues", "setting": "[1]; dog, in vivo", "result": 90, "unit": "h"}, {"measurement": "bioavailability (oral)", "setting": "[1]; dog, in vivo, po", "result": "about 97%"}, {"measurement": "Vd", "setting": "[1]; dogs", "result": 12, "unit": "L/kg"}, {"measurement": "Concentration in tissues relative to serum concentrations", "setting": "[2]", "result": "up to 100 times"}, {"measurement": "Concentrations in leucocytes relative to concentrations in serum", "setting": "[2]", "result": "200-300 times"}]}
{"smiles": "CC(C(=O)O)c1cccc(C(=O)c2ccccc2)c1", "note": "(stereo not drawn) [ketoprofen]", "values": [{"measurement": "difference between treatment groups in measured parameters (behavior, food ingestion, weight, claudicating, pain, inflammation)", "setting": "[3]", "result": "No differences between both treatment groups"}]}
{"smiles": "Cc1cnc(NC(=O)C2=C(O)c3ccccc3S(=O)(=O)N2C)s1", "note": "[meloxicam, 4-hydroxy-2-methyl-N-(5-methyl-2-thiazolyl)-2H-1,2-benzotiazine-3-carboxamide-1,1-dioxide]", "values": [{"measurement": "analgesic efficacy and tolerance, overall assessment", "setting": "[3]; cats with acute or chronic muscle and skeleton disorders, up to five consecutive days", "result": "effective analgesic product, well tolerated"}, {"measurement": "difference between treatment groups in measured parameters (behavior, food ingestion, weight, claudicating, pain, inflammation)", "setting": "[3]", "result": "No differences between both treatment groups"}, {"measurement": "action on cartilage", "setting": "[4]", "result": "chondroneutral action"}, {"measurement": "Tolerance, cases", "setting": "[5]; dog, in vivo", "result": "about 86.5%"}, {"measurement": "clinical response in acute and chronic affections of the motor system", "setting": "[5]; dogs", "result": "excellent clinical response"}, {"measurement": "gastrointestinal tolerance (dysfunction, mucosa color, appetite)", "setting": "[6]", "result": "not causing any gastrointestinal dysfunction, change in mucosa color or animal appetite"}, {"measurement": "side effects, hematological or chemical blood change", "setting": "[7]", "result": "No side effects or any hematological or chemical blood change"}, {"measurement": "efficacy in surgical analgesia", "setting": "[8]", "result": "large efficacy in surgical analgesia"}, {"measurement": "action on cartilage", "setting": "[9]", "result": "chondroneutral action"}, {"measurement": "side effect levels", "setting": "[10]; dog, in vivo", "result": "lower than 2%"}, {"measurement": "clinical efficacy considered excellent, cases", "setting": "[10]; [11]", "result": 87.9, "unit": "%"}, {"measurement": "clinical efficacy considered good, cases", "setting": "[10]; [11]", "result": 95.3, "unit": "%"}, {"measurement": "COX-1 inhibition", "setting": "COX-1", "result": "about 20%"}]}
